According to ChEMBL document CHEMBL5537180, “Discovery of Novel Aminobutanoic Acid-Based ASCT2 Inhibitors for the Treatment of Non-Small-Cell Lung Cancer” (J Med Chem, 2024):
The source made the active and inactive calls. The calls are words filed in the database; no cut-off is given here.

Assays:
[1] = target: T1, Neutral amino acid transporter B(0) (Homo sapiens) (UniProt Q15758); assay: Inhibition of ASCT2 in HEK293 cells assessed as reduction in [13C]-Gln uptake at 50 uM relative to control; format: cell-based
T1 sequence (whole entry): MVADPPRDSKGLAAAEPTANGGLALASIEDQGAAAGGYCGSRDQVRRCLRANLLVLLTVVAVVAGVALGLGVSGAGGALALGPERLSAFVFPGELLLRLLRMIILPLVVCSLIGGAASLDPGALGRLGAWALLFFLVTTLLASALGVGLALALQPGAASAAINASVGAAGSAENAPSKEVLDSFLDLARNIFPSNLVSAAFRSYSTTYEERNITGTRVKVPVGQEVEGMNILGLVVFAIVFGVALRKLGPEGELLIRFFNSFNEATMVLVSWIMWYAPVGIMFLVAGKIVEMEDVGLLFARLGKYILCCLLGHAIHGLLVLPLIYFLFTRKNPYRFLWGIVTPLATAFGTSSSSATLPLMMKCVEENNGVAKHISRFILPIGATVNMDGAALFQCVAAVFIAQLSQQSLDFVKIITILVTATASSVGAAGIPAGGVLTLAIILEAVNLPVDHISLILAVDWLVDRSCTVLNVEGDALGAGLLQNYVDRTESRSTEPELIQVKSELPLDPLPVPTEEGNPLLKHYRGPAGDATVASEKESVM

[2] = system: A549; assay: Induction of oxidative stress in human A549 cells assessed as upregulation of ROS production incubated for 24 hrs by DCFH-DA staining based flow cytometry analysis; format: functional, cell-based; conditions: dose 5-10 µM
[3] = system: Cell membrane; assay: Induction of mitochondrial membrane potential loss in human A549 cells assessed as […] aggregates at 10 uM incubated for 24 hrs by JC-1 staining based flow cytometry analysis (reference value: 93.8%); format: cell membranes
[4] = MRT (0 to infinity) in Sprague-Dawley rat at 10 mg/kg, ip incubated for 24 hrs by LC-MS/MS analysis; format: ADME, organism-based; conditions: in vivo
[5] = system: A549; assay: Inhibition of AKT/mTORC signalling in human A549 cells assessed as decrease in mTORC1 level at 5 to 10 uM measured after 24 hrs by Western blot analysis; format: cell-based; conditions: dose 5-10 µM
[6] = system: A549; assay: Induction of autophagy in human A549 cells assessed as downregulation of AKT phosphorylation level at 5 to 10 uM measured after 24 hrs by Western blot analysis; format: functional, cell-based; conditions: dose 5-10 µM
[7] = system: A549; assay: Induction of autophagy in human A549 cells assessed as downregulation of p70S6K level at 5 to 10 uM measured after 24 hrs by Western blot analysis; format: functional, cell-based; conditions: dose 5-10 µM
[8] = system: A549; assay: Induction of autophagy in human A549 cells assessed as downregulation of p62 level at 5 to 10 uM measured after 24 hrs by Western blot analysis; format: functional, cell-based; conditions: dose 5-10 µM
[9] = system: A549; assay: Induction of autophagy in human A549 cells assessed as downregulation of ERK expression at 5 to 10 uM measured after 24 hrs by Western blot analysis; format: functional, cell-based; conditions: dose 5-10 µM
[10] = Toxicity in BALB/c nude mouse assessed as effect on liver at 25 to 50 mg/kg, ip measured after 3 weeks by H and E staining based analysis; format: organism-based; conditions: in vivo, 504 h, dose 25-50 mg/kg
[11] = Toxicity in BALB/c nude mouse assessed as effect on kidney at 25 to 50 mg/kg, ip measured after 3 weeks by H and E staining based analysis; format: organism-based; conditions: in vivo, 504 h, dose 25-50 mg/kg
[12] = target: T2, Sodium-coupled neutral amino acid symporter 1 (Homo sapiens) (UniProt Q9H2H9); assay: Inhibition of SNAT1 (unknown origin) overexpressed in HEK293 cells assessed as reduction in [13C]-Gln uptake preincubated for 5 mins followed by substrate addition and measured after 15 mins; format: cell-based; conditions: time 20.0 min
T2 sequence (whole entry): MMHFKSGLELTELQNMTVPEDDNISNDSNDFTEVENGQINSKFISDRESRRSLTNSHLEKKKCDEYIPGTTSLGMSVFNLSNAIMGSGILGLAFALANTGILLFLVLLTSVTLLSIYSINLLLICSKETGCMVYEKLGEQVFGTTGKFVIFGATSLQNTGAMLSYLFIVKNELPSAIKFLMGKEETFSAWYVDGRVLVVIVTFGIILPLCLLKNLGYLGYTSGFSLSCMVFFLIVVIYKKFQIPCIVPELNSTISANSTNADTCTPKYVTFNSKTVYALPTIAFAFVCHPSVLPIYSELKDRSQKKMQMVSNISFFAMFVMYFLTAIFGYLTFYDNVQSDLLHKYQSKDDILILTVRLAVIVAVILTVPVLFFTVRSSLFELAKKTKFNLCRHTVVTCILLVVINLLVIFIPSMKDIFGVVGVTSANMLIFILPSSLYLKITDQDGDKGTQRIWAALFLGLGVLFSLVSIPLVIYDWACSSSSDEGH

[13] = target: T3, Sodium-coupled neutral amino acid symporter 2 (Homo sapiens) (UniProt Q96QD8); assay: Inhibition of SNAT2 (unknown origin) overexpressed in HEK293 cells assessed as reduction in [13C]-Gln uptake preincubated for 5 mins followed by substrate addition and measured after 15 mins; format: cell-based; conditions: time 20.0 min
T3 sequence (whole entry): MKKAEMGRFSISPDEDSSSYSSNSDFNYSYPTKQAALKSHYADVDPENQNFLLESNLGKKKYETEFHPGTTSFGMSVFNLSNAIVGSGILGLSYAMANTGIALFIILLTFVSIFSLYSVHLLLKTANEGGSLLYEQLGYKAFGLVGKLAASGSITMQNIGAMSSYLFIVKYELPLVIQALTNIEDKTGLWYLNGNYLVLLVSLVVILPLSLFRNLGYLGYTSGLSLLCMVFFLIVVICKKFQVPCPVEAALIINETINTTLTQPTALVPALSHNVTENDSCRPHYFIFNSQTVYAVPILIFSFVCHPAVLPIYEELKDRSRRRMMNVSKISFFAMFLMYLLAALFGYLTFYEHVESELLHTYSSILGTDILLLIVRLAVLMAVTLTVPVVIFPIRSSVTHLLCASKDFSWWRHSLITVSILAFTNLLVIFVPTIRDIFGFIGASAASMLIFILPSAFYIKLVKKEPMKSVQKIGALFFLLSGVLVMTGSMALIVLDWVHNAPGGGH

[14] = target: Large neutral amino acids transporter small subunit 1 (Homo sapiens) (UniProt Q01650); assay: Inhibition of LAT1 (unknown origin) overexpressed in HEK293 cells assessed as reduction in [13C]-Gln uptake preincubated for 5 mins followed by substrate addition and measured after 15 mins; format: cell-based; conditions: time 20.0 min
Sequence of Large neutral amino acids transporter small subunit 1 (Homo sapiens) (Q01650 whole entry): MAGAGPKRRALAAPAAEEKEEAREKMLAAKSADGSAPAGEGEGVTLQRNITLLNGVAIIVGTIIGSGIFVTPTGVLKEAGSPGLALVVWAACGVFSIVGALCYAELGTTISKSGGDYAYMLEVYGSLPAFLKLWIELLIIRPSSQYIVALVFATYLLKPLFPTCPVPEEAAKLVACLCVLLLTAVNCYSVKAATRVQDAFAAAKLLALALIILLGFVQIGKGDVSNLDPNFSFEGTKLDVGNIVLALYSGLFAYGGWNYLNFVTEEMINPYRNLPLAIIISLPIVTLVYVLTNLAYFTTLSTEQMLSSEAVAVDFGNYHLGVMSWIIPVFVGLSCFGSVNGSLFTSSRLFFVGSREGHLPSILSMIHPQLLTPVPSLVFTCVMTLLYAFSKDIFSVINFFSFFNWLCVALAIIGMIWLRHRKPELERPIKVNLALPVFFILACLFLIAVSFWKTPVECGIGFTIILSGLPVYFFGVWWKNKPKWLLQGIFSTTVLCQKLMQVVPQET

[15] = system: A549; assay: Inhibition of Gln uptake in human A549 cells assessed as reduction in succinate level incubated for 24 hrs by LC-MS/MS analysis; format: functional, cell-based
[16] = system: A549; assay: Inhibition of Gln uptake in human A549 cells assessed as reduction in fumarate level incubated for 24 hrs by LC-MS/MS analysis; format: functional, cell-based
[17] = system: NSCLC; assay: Antiproliferative activity against human NSCLC cells cultured as 2862 organoids assessed as cell viability incubated for 96 hrs by Celltiter-glo viability assay; format: functional, cell-based
[18] = system: NSCLC; assay: Antiproliferative activity against human NSCLC cells cultured as 2422 organoids assessed as cell viability incubated for 96 hrs by Celltiter-glo viability assay; format: functional, cell-based
[19] = system: NSCLC; assay: Antiproliferative activity against human NSCLC cells cultured as HCC827 organoids assessed as cell viability incubated for 96 hrs by Celltiter-glo viability assay; format: functional, cell-based

| SMILES | inhibition [1] | Activity [2] | Activity [3] | MRT inf [4] | inhibition [5] | Activity [6] | Activity [7] | Activity [8] | Activity [9] | Activity [10] | Activity [11] | inhibition [12] | inhibition [13] | inhibition [14] | inhibition [15] | inhibition [16] | IC50 [17] | IC50 [18] | IC50 [19] |
| --- | --- | --- | --- | --- | --- | --- | --- | --- | --- | --- | --- | --- | --- | --- | --- | --- | --- | --- | --- |
| CC(C)(C)c1ccc(OCC#Cc2ccccc2)c(CN(CC[C@H](N)C(=O)O)Cc2cc(C(C)(C)C)ccc2OCC#Cc2ccccc2)c1 | 98.3% | Dose-Dependent Effect | 60.3% | 20.7 h | Active | Active | Active | Active | Active | Toxic | Toxic | inactive | inactive | inactive | Active | Active | 2.85 µM | 0.12 µM | 2.36 µM |
| N[C@@H](CCN(Cc1ccccc1OCC#Cc1ccc(Cl)cc1)Cc1ccccc1OCC#Cc1ccc(Cl)cc1)C(=O)O | 93.2% | Dose-Dependent Effect | 82.4% | 13.7 h | Active | Active | Active | Active | Active | Toxic | Toxic | inactive | inactive | inactive | Active | Active | 5.21 µM | 7.34 µM | 22.4 µM |
